Data set [1] has as its system VLA-4–negative MDA-MB-231/fluc human breast cancer tumor cells. In words: Cellular uptake assay, VLA-4-negative MDA-MB-231/fluc cells. In kind it is cell-based. Conditions: coincubation with 1 μM nonradioactive ligand, 60 min, 37°C; P = 0.3.
Data set [2] concerns Raji lymphoma mouse model. The settings on record: in vivo; cited from earlier work.
Data set [3] concerns VLA-4–positive B16F10 mouse melanoma cells. In words: Cellular uptake assay, VLA-4-positive B16F10 cells. The class given is cell-based. The settings on record: 60 min, 37°C, P < 0.05.

For the substance “^64Cu-labeled 11-bis(carboxymethyl)-1,4,8,11-tetraazabicyclo[6.6.2] hexadecane (CB-TE2A)-LLP2A [^64Cu-CB-TE2A-LLP2A]”, the “blocking of cellular uptake with cold LLP2A in MDA-MB-231/fluc cells” value in data set [1] was “no significant blocking”. In addition, the “tracer uptake in tissues of Raji lymphoma mouse model” value in data set [2] is “uptake in the tumor, spleen, and bone marrow”. For the same substance, the “cellular uptake (sum of internalized and cell surface-bound fractions) in B16F10 cells relative to MDA-MB-231 cells” value in data set [3] (1 nM tracer, cpm/mg protein) was “higher”. Besides, the “blocking of cellular uptake with cold LLP2A in B16F10 cells” value in data set [3] (coincubation with 1 μM nonradioactive ligand) is recorded as “blocking with cold LLP2A was observed”.

The values are drawn from publication PMC8522701 (Journal of nuclear medicine : official publication, Society …, 2012).
